# PMC5131319, “Occurrence, temporal trends, and half-lives of perfluoroalkyl acids (PFAAs) in occupational workers in China” (Scientific Reports, 2016)
# Several values for one entry are separate records, joined by “and”; a condition that tells them apart may be missing. Equal values may be shown once. Read-outs that look alike come from different tables or passages of the source.
# Assays:
# [1] = parameters: method as in PMID 23980546, PMID 12499116, PMID 20236705; settings: set value; cited from earlier work
# [2] = PFAA concentration in serum of occupational workers (HPLC-ESI/MS/MS); type: in vivo, human; parameters: Serum PFAA level: unit: ng/mL; settings: for Serum concentration, geometric mean: all occupational workers
# Description: The selected fluorochemical plant (Henxin Chemical Plant) in this study is one of the largest producers of PFOS-related chemicals in China and is located in Yingcheng, Hubei province. Perfluoroalkyl sulfonic acids (PFSAs) and perfluorotertiary amines are synthesized through an electro-chemical fluorination (ECF) process. We collected paired serum and urine samples from the occupational workers in the plant for five consecutive years, and the sampling activities were carried out in Nov. 2008, Nov. 2009, Nov. 2010, Dec. 2011, and Dec 2012, respectively. The Medical Research Ethics Committee, School of Medicine, Jianghan University, approved the ethics of this study, and all methods were performed in accordance with the relevant guidelines and regulations, moreover, all volunteers gave written informed consent. Demographic information of the donors, including gender, age, length of service, and work assignment, was collected with a questionnaire (Table S1). The sampled population included a total of 302 occupational workers, of which there were 89 female and 213 male participants. In total, 302 serum and 274 urine samples were collected.
# The participants were told not to eat breakfast before the sampling, and morning urine samples and blood samples were collected. Serum was separated from the blood by centrifugation at 1100 × g at 4 °C for 10 min and then placed on ice. Serum samples were then transferred to our laboratory on the same day and stored in polypropylene containers at −20 °C until analysis.
# All pre-treatment methods and instrument analysis of PFAAs in serum and urine samples are based on previous studies with minor modifications (see Supplementary Information)[3][31]. Based on the PFAA profiles in environmental matrices around the same plant in our previous study, only 3 main PFAAs, PFHxS, PFOA, and PFOS, were analyzed in the obtained serum and urine samples. Instrumental analysis of the PFAAs was performed by a HPLC-ESI/MS/MS system (HPLC: Waters 2695, MS: Waters Quattro Premier XE). The limits of detection (LODs) of PFHxS, PFOA, and PFOS were 0.020, 0.063, and 0.018 ng mL^−1 for serum samples and 0.008, 0.025, and 0.007 ng mL^−1 for urine samples, respectively. A procedural blank was performed for every batch of seven samples, and all of the blank levels were below the LODs. […] Details of quality assurance and quality control of the chemical analysis can be found in the Supplementary Information.
# [3] = cited from earlier work
# [4] = cited from earlier work; remark: listed apart in the source
# [5] = Half-life estimated by annual decline rates of serum PFAAs (first-order model); type: in vivo, human
# From the text: Olsen et al.[21] found linear relationship between the logarithm of serum PFAAs concentration and time, and a first order model was adopted to estimate the half-lives of PFAAs. The elimination of PFAAs in humans was also described with the following equation: […]
# If we set C(t) as 1/2C0, then the half-life
# where k is the elimination rate constant. We calculated k using two approaches in the present study. In the first approach, k is defined as Cltotal/Vd, where Vd stands for the volume of distribution of PFAAs in the human body. Cltotal represents the total daily PFAAs clearance in the human body; for men and women older than 50, it refers to renal clearance, while for young women, it is defined as the sum of menstrual clearance and renal clearance. To keep consistency with other studies, Vd of PFOS and PFHxS were set at 230 mL kg^−1, and Vd of PFOA was set at 170 mL kg^−1 in this study. In the second approach, k is defined as the average annual decline rates of PFAAs in workers who participated in this study.
# Serum PFAAs of workers were sequentially measured for 5 years, and they fluctuated during our sampling period, although different serum PFAAs decreased in certain years. […] For PFOA, 31 out of 42 workers decreased in the period of 2011–2012, and the serum PFOA concentration dropped by 41%. […] We assumed that there were no new inputs of PFAAs in these workers, and thus k in Eq (2) was set as the average annual serum PFAA decline rate. The half-lives of PFHxS, PFOA, and PFOS estimated by Eq (2) were 3.6, 1.7, and 1.9 years.
# [6] = Electrolytic Department, length of service < 1 year
# [7] = Fabric finishing agent department, N 8
# [8] = Management Office, length of service 1-3 years
# [9] = Management Office, length of service < 1 year
# [10] = Management Office, length of service >3 years
# [11] = Research Building, length of service 1-3 years
# [12] = Research Building, length of service >3 years
# [13] = Sulfonation Department, length of service 1-3 years
# [14] = Sulfonation Department, length of service < 1 year
# [15] = Sulfonation Department, length of service >3 years
# [16] = workers with service length 1–3 years
# [17] = workers with service length less than 1 year
# [18] = workers with service length more than 3 years
# [19] = retired fluorochemical production workers
compound,measurement,setting,value
"O=C(O)C(F)(F)C(F)(F)C(F)(F)C(F)(F)C(F)(F)C(F)(F)C(F)(F)F [PFOA, perfluorooctanoic acid]",Vd (volume of distribution in the human body),[1],170 mL/kg
same,"Serum concentration, mean","[2]; All workers, N 302",1052 ng/mL
same,"Serum concentration, median","[2]; All workers, N 302",427 ng/mL
same,"Serum concentration, range","[2]; All workers, N 302",2.5 to 32000 ng/mL
same,Serum PFAA level,[2]; [6],118
same,"Serum concentration, mean","[2]; Electrolytic department, N 74",2337 ng/mL
same,"Serum concentration, median","[2]; Electrolytic department, N 74",1126 ng/mL
same,"Serum concentration, range","[2]; Electrolytic department, N 74",55.9 to 32000 ng/mL
same,"Serum concentration, mean",[2]; [7],606 ng/mL
same,"Serum concentration, median",[2]; [7],114 ng/mL
same,"Serum concentration, range",[2]; [7],51 to 2600 ng/mL
same,Serum PFAA level,[2]; [8],48.3
same,Serum PFAA level,[2]; [9],9.9
same,Serum PFAA level,[2]; [10],167
same,"Serum concentration, mean","[2]; Management office, N 92",362 ng/mL
same,"Serum concentration, median","[2]; Management office, N 92",101 ng/mL
same,"Serum concentration, range","[2]; Management office, N 92",2.5 to 4380 ng/mL
same,Serum PFAA level,[2]; [11],124
same,Serum PFAA level,[2]; [12],276
same,"Serum concentration, mean","[2]; Research building, N 27",404 ng/mL
same,"Serum concentration, median","[2]; Research building, N 27",142 ng/mL
same,"Serum concentration, range","[2]; Research building, N 27",4.7 to 2920 ng/mL
same,Serum PFAA level,[2]; [13],371
same,Serum PFAA level,[2]; [14],185
same,Serum PFAA level,[2]; [15],896
same,"Serum concentration, mean","[2]; Sulfonation department, N 101",929 ng/mL
same,"Serum concentration, median","[2]; Sulfonation department, N 101",603 ng/mL
same,"Serum concentration, range","[2]; Sulfonation department, N 101",4.9 to 4630 ng/mL
same,"Serum concentration, geometric mean",[2],334 ng/mL
same,Average serum concentration (Average ± SD),"[2]; female workers, n 89",659 ± 743 ng/mL
same,concentration at 2008 calendar year,"[2]; human, serum, other: occupational exposure, 46 workers sampled at least three times, 2008, read-out: Serum concentration, GM",368 ng/mL
same,concentration at 2009 calendar year,"[2]; human, serum, other: occupational exposure, 46 workers sampled at least three times, 2009, read-out: Serum concentration, GM",252 ng/mL
same,concentration at 2010 calendar year,"[2]; human, serum, other: occupational exposure, 46 workers sampled at least three times, 2010, read-out: Serum concentration, GM",622 ng/mL
same,concentration at 2011 calendar year,"[2]; human, serum, other: occupational exposure, 46 workers sampled at least three times, 2011, read-out: Serum concentration, GM",692 ng/mL
same,concentration at 2012 calendar year,"[2]; human, serum, other: occupational exposure, 46 workers sampled at least three times, 2012, read-out: Serum concentration, GM",416 ng/mL
same,Average serum concentration (Average ± SD),"[2]; male workers, n 213","1,215 ± 2,936 ng mL^−1"
same,"Serum concentration, GM",[2]; [16],222 ng/mL
same,"Serum concentration, GM",[2]; [17],68 ng/mL
same,"Serum concentration, GM",[2]; [18],527 ng/mL
same,Shortest half-life in humans reported in previous studies,[3],1.2 years
same,Half-life (GM),[3]; [19],3.5 years
same,"Serum concentration, geometric mean",[4]; occupational workers of Wang et al.,1272 ng/mL
same,"Serum concentration, geometric mean",[4]; workers of the 3 M Company,1130 ng/mL
same,Drop of serum concentration,"[5]; 2011–2012, 42 workers",41%
same,half-life,"[5]; human, k = average annual serum decline rate, no new inputs assumed, two time points",621 days
"O=S(=O)(O)C(F)(F)C(F)(F)C(F)(F)C(F)(F)C(F)(F)C(F)(F)C(F)(F)C(F)(F)F [PFOS, perfluorooctanesulfonate]",Vd (volume of distribution in the human body),[1],230 mL/kg
same,"Serum concentration, GM","[2]; 46 workers sampled at least three times, 2008",1751 ng/mL
same,"Serum concentration, GM","[2]; 46 workers sampled at least three times, 2009",1095 ng/mL
same,"Serum concentration, GM","[2]; 46 workers sampled at least three times, 2012",2580 ng/mL
same,"Serum concentration, mean","[2]; All workers, N 302",5624 ng/mL
same,"Serum concentration, range","[2]; All workers, N 302",50.3 to 118000 ng/mL
same,Serum PFAA level,"[2]; Electrolytic Department, length of service 1-3 years",1827
same,Serum PFAA level,[2]; [6],772
same,Serum PFAA level,"[2]; Electrolytic Department, length of service >3 years",1393
same,"Serum concentration, mean","[2]; Electrolytic department, N 74",1909 ng/mL
same,"Serum concentration, median","[2]; Electrolytic department, N 74",1541 ng/mL
same,"Serum concentration, range","[2]; Electrolytic department, N 74",234 to 8501 ng/mL
same,"Serum concentration, mean",[2]; [7],514 ng/mL
same,"Serum concentration, median",[2]; [7],267 ng/mL
same,"Serum concentration, range",[2]; [7],103 to 1890 ng/mL
same,Serum PFAA level,[2]; [8],641
same,Serum PFAA level,[2]; [9],140
same,Serum PFAA level,[2]; [10],728
same,"Serum concentration, mean","[2]; Management office, N 92",1144 ng/mL
same,"Serum concentration, median","[2]; Management office, N 92",616 ng/mL
same,"Serum concentration, range","[2]; Management office, N 92",50.3 to 7910 ng/mL
same,Serum PFAA level,[2]; [11],888
same,Serum PFAA level,"[2]; Research Building, length of service < 1 year",318
same,Serum PFAA level,[2]; [12],890
same,"Serum concentration, mean","[2]; Research building, N 27",1195 ng/mL
same,"Serum concentration, median","[2]; Research building, N 27",736 ng/mL
same,"Serum concentration, range","[2]; Research building, N 27",101 to 7450 ng/mL
same,Serum PFAA level,[2]; [13],5463
same,Serum PFAA level,[2]; [14],5174
same,Serum PFAA level,[2]; [15],7756
same,"Serum concentration, mean","[2]; Sulfonation department, N 101",14002 ng/mL
same,"Serum concentration, median","[2]; Sulfonation department, N 101",5544 ng/mL
same,"Serum concentration, range","[2]; Sulfonation department, N 101",416 to 118000 ng/mL
same,"Serum concentration, geometric mean",[2],1677 ng/mL
same,Average serum concentration (Average ± SD),"[2]; female workers, n 89","2,221 ± 4,791 ng mL^−1"
same,Average serum concentration (Average ± SD),"[2]; male workers, n 213","7,040 ± 15382 ng mL^−1"
same,Serum concentration below which 85 percent of the population lies,"[2]; present study, workers",6775 ng/mL
same,Serum PFOS concentration,"[2]; serum, sampling year 2008, individual occupational workers",853 ng/mL and 83 ng/mL and 463 ng/mL and 635 ng/mL and 357 ng/mL and 25000 ng/mL and 4570 ng/mL and 4540 ng/mL and 460 ng/mL and 3220 ng/mL and 4170 ng/mL and 3160 ng/mL and 2690 ng/mL and 650 ng/mL and 620 ng/mL and 250 ng/mL and 3580 ng/mL and 3030 ng/mL and 1770 ng/mL and 5220 ng/mL and 1970 ng/mL and 3940 ng/mL and 2600 ng/mL and 8430 ng/mL and 7450 ng/mL and 3800 ng/mL and 1450 ng/mL and 1280 ng/mL
same,"Serum concentration, GM",[2]; [16],1861 ng/mL
same,"Serum concentration, GM",[2]; [17],782 ng/mL
same,"Serum concentration, GM",[2]; [18],1876 ng/mL
same,"Half-life, population-based pharmacokinetic model",[3]; US NHANES cross-sectional data 1999 to 2012,3.7 years
same,Shortest half-life in humans reported in previous studies,[3],3.7 years
same,Half-life based on serum concentrations,[3]; humans,more than 5 years
same,Half-life by daily clearance (GM),[3]; males and older females,18 years
same,half-life,[3]; males and older females,exceeded 10 years
same,Half-life (GM),[3]; [19],4.8 years
same,"Half-life, 95% CI",[3]; [19],3.9–6.9 years
same,half-life,[3]; [19],approximately 5 years
same,Half-life by daily clearance (GM),[3]; young females,5.1 years
same,Serum concentration in 85 percent of the sampled Chinese population,[4]; general population,less than 100 ng mL^−1
same,"Serum concentration, median",[4]; workers in another fluorochemical plant in China,33.5 ng/mL
same,"Serum concentration, geometric mean",[4]; workers of the 3 M Company,910 ng/mL
same,Average annual decline rate of serum concentration,"[5]; 2008 to 2009, 36 workers",37%
same,Half-life estimated by annual decline rates,"[5]; k = average annual serum decline rate, no new inputs assumed, two time points",1.9 years
